Literature values as cited in publication PMC3853759 (International Journal of Pharmaceutical Investigation, 2013).

[Zn] [Zn, Zinc]
oral Zn dose producing acute toxicity (rats): 237 to 623 mg/kg
oral Zn dose producing acute toxicity (mice): 86 to 605 mg/kg
